# Test system: CYP1A in Hep-i(+) cells
# Assay: Determination of CYP1A activity and CYP1A1/CYP1A2 gene expression after 3-MC treatment
# Assay type: cell-based, rat
# Conditions: 5 μM for 4 days
# Procedure: In order to induce CYP1A activity, cells on Day 8 of hepatocyte induction were treated with 5 μM 3-methylcholanthrene (3-MC) (Sigma) for 4 days (the medium was exchanged on the second day). The control cells were treated only with DMSO as a solvent. Four days later, P450-G1o CYP1A1 Assay (Luciferin-CEE) was used to determine CYP1A activity. According to the manufacturer's instruction, this kit can detect CYP1A2 activity more efficiently than CYP1A1 activity. Following CYP1A activity, the DNA content of the cells was measured to normalize the CYP activity. In order to examine the responsiveness to 3-MC, fold changes in activity were calculated as [mean luminescence in the presence of 3-MC/mean luminescence in the absence of 3-MC] for 3 wells/condition in each experiment to determine an average value for five independent experiments. In two experiments, total RNA was isolated to assess the gene expression levels of CYP1A1 and CTP1A2.
compound,measurement,value
"Cc1ccc2cc3c(ccc4ccccc43)c3c2c1CC3 [3-MC, 3-methylcholanthrene]",CYP1A1 and CYP1A2 gene expressions in response to stimulation,efficiently induced
same,CYP1A activity in response to stimulation,efficiently induced

# Reference: patent publication US10961507B2, “Method for producing hepatic stem/precursor cells from mature hepatic cells using low-molecular-weight compound” (Cynity Co., Ltd., priority 2016, dated 2021)
